Reference: ChEMBL document CHEMBL4507268 (2021)

Tests used:
Conditions in all cases: Compound concentration 1000.0 nM
[1] = biological target: Cyclin-dependent kinase 19 (Homo sapiens) (UniProt Q9BWU1)
[2] = biological target: Misshapen-like kinase 1 (Homo sapiens) (UniProt Q8N4C8)
[3] = biological target: T1, Serine/threonine-protein kinase PLK4 (Homo sapiens) (UniProt O00444)
T1 sequence (whole entry): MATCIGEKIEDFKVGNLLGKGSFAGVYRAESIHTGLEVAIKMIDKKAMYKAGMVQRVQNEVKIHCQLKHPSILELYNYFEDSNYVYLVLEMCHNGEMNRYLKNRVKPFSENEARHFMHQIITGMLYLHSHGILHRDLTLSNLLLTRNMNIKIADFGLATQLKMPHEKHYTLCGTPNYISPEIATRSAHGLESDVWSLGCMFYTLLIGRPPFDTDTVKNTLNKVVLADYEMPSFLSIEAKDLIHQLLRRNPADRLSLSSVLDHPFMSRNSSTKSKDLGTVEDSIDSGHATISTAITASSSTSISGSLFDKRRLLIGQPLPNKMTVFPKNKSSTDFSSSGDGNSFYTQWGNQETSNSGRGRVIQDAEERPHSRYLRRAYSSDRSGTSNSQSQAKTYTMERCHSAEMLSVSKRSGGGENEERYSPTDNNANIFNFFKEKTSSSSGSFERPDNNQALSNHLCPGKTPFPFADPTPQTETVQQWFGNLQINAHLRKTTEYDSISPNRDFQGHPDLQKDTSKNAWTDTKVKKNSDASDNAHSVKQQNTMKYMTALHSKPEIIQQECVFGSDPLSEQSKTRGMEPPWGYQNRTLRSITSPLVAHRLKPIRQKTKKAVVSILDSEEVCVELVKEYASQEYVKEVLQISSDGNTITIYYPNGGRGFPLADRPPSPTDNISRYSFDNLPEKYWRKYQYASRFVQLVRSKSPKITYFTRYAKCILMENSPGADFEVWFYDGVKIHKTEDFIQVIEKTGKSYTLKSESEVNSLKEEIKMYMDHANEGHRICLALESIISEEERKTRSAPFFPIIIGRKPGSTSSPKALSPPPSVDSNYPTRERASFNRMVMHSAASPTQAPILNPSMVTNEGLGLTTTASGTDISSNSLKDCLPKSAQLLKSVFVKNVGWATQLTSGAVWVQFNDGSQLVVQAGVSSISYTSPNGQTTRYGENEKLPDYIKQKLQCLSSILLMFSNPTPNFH

[4] = biological target: Serine/threonine-protein kinase WNK2 (Homo sapiens) (UniProt Q9Y3S1)
[5] = biological target: Hepatocyte growth factor receptor (Homo sapiens) (UniProt P08581)
[6] = tested on: Phosphatidylinositol 4,5-bisphosphate 3-kinase catalytic subunit alpha isoform (Homo sapiens), P42336 [E545A]
[7] = biological target: T2, Serine/threonine-protein kinase ICK (Homo sapiens) (UniProt Q9UPZ9)
T2 sequence (whole entry): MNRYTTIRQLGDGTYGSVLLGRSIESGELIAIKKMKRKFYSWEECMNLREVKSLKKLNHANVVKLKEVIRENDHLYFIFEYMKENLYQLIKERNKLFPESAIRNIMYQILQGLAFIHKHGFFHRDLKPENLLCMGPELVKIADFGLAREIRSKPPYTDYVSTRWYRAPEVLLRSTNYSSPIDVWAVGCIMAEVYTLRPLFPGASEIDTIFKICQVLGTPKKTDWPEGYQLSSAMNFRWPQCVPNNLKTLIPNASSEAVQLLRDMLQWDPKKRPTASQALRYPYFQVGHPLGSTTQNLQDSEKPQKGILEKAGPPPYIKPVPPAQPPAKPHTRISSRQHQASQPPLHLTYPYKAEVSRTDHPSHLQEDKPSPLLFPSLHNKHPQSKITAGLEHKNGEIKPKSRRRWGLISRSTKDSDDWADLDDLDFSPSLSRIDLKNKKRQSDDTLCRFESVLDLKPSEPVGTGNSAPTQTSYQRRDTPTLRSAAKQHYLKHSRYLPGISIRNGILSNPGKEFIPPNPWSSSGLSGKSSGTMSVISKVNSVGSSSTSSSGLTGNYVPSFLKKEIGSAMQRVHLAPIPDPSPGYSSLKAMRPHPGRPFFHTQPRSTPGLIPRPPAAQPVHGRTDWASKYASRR

[8] = biological target: STE20-like serine/threonine-protein kinase (Homo sapiens) (UniProt Q9H2G2)
[9] = biological target: MAP kinase-activated protein kinase 2 (Homo sapiens) (UniProt P49137)
[10] = biological target: Phosphatidylinositol 4-phosphate 5-kinase type-1 alpha (Homo sapiens) (UniProt Q99755)
[11] = biological target: T3, Serine/threonine-protein kinase Nek11 (Homo sapiens) (UniProt Q8NG66)
T3 sequence (whole entry): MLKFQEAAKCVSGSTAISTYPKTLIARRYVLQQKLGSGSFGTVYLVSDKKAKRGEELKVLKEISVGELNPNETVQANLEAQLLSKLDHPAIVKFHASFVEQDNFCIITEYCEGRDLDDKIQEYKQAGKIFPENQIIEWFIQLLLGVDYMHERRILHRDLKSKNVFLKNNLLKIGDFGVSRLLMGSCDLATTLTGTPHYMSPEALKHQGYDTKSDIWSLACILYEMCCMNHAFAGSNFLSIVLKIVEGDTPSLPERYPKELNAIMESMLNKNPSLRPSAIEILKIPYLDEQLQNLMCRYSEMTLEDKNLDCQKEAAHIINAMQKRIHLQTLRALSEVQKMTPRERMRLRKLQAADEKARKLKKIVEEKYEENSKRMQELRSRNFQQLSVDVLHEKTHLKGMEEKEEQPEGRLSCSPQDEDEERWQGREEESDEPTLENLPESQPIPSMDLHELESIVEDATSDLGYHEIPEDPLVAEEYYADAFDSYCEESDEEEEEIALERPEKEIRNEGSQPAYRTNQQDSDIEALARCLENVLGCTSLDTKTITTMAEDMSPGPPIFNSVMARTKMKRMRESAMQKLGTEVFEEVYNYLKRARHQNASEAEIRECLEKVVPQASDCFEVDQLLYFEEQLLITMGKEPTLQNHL

Measured: residual activity

Chain of Serine/threonine-protein kinase WNK2 (Homo sapiens) (Q9Y3S1 whole entry): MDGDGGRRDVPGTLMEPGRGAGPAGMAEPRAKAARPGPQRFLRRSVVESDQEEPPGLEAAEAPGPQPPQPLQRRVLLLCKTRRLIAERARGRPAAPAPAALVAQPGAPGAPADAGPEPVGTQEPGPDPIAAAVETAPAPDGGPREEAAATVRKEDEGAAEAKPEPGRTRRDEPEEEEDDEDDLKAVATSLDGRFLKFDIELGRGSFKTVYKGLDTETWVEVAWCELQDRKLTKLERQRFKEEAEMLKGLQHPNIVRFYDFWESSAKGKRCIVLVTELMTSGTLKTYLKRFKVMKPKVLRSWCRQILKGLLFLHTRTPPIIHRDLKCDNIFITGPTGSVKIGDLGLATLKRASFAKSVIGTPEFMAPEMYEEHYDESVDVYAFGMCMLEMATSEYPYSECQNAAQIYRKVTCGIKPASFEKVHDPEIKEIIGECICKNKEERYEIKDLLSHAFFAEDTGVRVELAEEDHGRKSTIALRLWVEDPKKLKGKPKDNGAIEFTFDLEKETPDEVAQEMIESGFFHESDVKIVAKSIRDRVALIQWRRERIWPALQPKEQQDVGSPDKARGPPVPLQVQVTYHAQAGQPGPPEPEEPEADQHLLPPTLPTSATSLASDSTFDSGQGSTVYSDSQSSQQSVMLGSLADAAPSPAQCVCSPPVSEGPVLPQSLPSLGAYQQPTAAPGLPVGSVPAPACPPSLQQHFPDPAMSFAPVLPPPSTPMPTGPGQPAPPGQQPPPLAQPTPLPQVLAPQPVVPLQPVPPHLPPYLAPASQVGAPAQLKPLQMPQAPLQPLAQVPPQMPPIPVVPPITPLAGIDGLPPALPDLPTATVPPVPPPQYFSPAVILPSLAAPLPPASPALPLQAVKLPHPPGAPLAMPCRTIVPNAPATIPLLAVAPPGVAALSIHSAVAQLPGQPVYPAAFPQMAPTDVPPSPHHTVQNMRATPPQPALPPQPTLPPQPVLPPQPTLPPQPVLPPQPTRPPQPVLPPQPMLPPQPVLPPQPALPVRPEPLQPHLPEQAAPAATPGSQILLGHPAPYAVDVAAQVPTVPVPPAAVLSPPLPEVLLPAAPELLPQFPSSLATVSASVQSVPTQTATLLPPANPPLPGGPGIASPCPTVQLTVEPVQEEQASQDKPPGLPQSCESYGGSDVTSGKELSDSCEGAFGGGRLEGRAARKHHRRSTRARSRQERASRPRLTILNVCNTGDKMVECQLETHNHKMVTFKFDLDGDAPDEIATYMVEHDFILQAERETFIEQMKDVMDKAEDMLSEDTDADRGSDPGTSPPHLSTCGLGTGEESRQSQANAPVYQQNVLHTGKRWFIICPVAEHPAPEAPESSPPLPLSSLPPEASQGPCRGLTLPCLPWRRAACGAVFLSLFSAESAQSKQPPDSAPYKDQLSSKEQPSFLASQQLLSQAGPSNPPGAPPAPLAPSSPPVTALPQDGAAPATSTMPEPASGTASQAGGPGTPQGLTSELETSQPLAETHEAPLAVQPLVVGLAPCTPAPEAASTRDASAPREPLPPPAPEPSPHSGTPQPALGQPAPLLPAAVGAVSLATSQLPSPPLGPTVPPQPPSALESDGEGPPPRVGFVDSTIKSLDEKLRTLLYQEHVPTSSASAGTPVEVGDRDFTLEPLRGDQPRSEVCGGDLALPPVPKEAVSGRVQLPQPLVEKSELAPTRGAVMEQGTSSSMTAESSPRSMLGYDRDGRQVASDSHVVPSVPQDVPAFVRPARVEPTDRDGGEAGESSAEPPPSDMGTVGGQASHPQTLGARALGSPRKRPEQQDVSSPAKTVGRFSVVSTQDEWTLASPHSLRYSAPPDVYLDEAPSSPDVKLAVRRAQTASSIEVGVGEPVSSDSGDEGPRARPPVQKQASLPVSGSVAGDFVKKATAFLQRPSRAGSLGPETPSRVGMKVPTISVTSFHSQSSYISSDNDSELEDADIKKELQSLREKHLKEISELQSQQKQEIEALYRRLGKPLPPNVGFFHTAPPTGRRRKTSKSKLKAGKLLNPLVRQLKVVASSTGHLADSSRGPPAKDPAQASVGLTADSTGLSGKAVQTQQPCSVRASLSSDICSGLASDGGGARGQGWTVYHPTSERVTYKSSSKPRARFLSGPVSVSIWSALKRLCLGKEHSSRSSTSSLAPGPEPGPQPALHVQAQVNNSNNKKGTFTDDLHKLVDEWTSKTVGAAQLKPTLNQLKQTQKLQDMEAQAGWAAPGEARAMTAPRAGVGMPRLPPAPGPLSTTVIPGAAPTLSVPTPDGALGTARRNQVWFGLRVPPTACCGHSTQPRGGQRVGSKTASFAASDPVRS
Chain of Hepatocyte growth factor receptor (Homo sapiens) (P08581 whole entry, canonical isoform): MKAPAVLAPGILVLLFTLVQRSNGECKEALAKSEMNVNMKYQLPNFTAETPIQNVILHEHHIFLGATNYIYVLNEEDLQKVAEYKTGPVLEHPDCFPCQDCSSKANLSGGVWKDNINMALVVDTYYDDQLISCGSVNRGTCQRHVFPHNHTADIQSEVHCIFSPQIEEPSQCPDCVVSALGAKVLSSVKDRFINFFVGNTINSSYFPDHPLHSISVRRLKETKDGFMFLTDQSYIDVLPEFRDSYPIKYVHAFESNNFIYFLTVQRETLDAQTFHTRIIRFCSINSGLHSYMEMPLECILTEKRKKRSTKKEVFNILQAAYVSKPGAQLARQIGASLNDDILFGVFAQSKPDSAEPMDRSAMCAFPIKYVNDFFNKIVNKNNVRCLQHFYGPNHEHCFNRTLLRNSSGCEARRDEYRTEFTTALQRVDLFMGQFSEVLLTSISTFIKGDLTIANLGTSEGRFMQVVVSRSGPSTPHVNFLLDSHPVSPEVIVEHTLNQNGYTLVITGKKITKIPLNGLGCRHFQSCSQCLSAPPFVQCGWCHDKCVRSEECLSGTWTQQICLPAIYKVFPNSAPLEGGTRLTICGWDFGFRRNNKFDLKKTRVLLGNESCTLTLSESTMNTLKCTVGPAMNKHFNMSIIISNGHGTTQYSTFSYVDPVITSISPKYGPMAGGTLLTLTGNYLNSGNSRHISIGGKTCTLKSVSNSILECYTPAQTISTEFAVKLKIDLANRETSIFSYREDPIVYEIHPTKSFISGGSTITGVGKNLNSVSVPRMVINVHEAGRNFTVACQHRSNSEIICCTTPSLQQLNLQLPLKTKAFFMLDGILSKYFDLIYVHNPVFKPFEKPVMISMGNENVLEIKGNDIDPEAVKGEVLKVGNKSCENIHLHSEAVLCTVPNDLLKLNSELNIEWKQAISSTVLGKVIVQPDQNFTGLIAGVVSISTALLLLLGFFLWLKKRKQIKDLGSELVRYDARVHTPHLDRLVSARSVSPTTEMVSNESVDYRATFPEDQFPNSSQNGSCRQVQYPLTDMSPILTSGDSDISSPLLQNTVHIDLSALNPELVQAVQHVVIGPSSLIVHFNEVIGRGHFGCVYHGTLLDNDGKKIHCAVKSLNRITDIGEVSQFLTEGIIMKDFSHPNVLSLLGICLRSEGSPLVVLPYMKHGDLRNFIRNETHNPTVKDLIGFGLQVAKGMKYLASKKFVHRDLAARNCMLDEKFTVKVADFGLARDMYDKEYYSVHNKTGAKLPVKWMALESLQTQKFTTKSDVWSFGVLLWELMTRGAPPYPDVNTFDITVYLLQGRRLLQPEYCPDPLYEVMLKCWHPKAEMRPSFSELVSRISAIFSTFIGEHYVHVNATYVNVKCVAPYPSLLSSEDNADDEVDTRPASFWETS
Chain of Phosphatidylinositol 4,5-bisphosphate 3-kinase catalytic subunit alpha isoform (Homo sapiens), P42336 [E545A] (P42336 whole entry E545A, canonical isoform): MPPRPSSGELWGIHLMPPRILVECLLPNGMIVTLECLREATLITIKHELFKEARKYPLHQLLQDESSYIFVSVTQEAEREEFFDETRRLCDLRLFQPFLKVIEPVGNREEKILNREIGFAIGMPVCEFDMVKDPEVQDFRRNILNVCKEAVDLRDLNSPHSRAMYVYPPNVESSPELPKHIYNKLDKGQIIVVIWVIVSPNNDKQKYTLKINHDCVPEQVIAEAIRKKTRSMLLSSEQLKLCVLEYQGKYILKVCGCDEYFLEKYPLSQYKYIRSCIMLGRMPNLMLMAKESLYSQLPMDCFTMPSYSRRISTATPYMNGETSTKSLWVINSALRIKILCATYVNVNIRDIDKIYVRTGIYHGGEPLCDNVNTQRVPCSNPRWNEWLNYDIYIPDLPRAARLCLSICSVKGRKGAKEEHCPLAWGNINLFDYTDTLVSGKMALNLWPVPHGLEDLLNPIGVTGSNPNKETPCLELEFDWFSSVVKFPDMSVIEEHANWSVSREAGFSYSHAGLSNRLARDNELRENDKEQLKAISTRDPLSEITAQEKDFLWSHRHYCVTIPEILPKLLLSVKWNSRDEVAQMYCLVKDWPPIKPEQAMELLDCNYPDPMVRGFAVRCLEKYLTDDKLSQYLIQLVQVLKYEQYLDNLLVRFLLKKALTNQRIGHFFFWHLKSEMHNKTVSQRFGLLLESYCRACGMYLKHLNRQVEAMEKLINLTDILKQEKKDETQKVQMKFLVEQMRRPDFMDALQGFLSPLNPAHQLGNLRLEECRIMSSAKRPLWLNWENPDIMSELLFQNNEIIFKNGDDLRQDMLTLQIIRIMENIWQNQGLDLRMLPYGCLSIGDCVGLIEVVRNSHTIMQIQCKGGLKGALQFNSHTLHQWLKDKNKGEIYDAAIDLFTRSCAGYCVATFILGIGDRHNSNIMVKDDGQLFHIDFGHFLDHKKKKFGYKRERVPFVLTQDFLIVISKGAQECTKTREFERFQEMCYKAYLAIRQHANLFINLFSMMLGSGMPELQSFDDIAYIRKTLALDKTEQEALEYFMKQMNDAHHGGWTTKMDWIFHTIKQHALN
Chain of MAP kinase-activated protein kinase 2 (Homo sapiens) (P49137 whole entry, looked up): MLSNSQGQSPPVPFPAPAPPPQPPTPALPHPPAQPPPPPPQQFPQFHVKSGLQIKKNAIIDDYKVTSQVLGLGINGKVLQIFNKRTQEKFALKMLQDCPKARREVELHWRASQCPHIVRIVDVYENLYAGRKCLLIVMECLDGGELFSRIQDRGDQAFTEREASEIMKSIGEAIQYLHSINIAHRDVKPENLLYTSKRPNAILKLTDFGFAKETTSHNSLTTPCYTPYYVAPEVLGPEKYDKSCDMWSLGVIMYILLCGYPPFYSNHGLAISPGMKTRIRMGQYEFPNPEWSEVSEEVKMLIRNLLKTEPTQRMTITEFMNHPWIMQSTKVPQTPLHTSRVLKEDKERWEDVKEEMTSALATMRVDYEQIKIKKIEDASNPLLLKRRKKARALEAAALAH

Cc1nc(C2CCN(C(=O)c3ccc(OC(F)(F)F)cc3N)CC2)c2ncc(N3CCN(C)CC3)cc2n1 [BAY-693]
inactive: [1] 86% | [2] 93% | [3] 77% | [4] 100% | [5] 94% | [6] 79% | [7] 84% | [8] 97% | [9] 100% | [10] 63% | [11] 100%

CN1CCN(c2cnc3c(C4CCN(C(=O)c5ccc(OC(F)(F)F)cc5N)CC4)ncnc3c2)CC1 [BAY-885]
inactive: [1] 79% | [2] 85% | [3] 83% | [4] 100% | [5] 69% | [6] 89% | [7] 100% | [8] 96% | [9] 100% | [10] 64% | [11] 100%
